This is an account of results in patent publication US3996205A, “Aminoglycoside antibiotics and intermediates” (The Upjohn Company, priority 1975, dated 1976).

One test has as its system S. hemolyticus UC 152. Briefly: microplate test in BHI agar, S. hemolyticus UC 152. It counts as cell-based, Streptococcus hemolyticus. To be noted: tested again (table 4), same conditions. Here is the method:
(§1) Compounds were also tested in a standard microplate test in Brain Heart Infusion (BHI) Agar, at a concentration of 1 mg/ml. Incubation is at 37° and end points are read at 20 hours. Brain Heart Infusion Agar (supplied by Difco Laboratories, Detroit, Michigan, U.S.A.) has the following composition:
(§2) Compounds (7β), (7α) and (9) were tested again along with compounds (11) and (14β) against a neamine control using the same conditions as given above.

For the next test, the system named is S. typhi TG-3. Briefly: microplate test in BHI agar, S. typhi TG-3. Format: cell-based. To be noted: table 4, same conditions. Here is the method:
as §1, §2

The test system of a further test is K. pneumoniae UC 58. Briefly: microplate test in BHI agar, K. pneumoniae UC 58. Format: cell-based. Conditions: tested again (table 4), same conditions. Here is the method: as §1, §2
The next test has as its system P. rettgeri UC 339. Briefly: microplate test in BHI agar, P. rettgeri UC 339. Format: cell-based. To be noted: table 4, same conditions. Here is the method: as §1, §2

Structures are written as SMILES.

For `NC[C@H]1O[C@H](O[C@H]2[C@H](O)[C@@H](O)[C@H](N)C[C@@H]2N)[C@H](N)[C@@H](O)[C@@H]1O` [Neamine, neamine], the “Minimum Inhibitory Concentration” value came to 3.9 µg/mL in the test with S. hemolyticus UC 152, 15.6 µg/mL with S. typhi TG-3, 3.9 µg/mL with K. pneumoniae UC 58 and 1000 µg/mL in the test on P. rettgeri UC 339.
